Molecular target: cytochrome bo oxidase (Escherichia coli, UniProt P0ABI8)
Assay type: biochemical

Chain of cytochrome bo oxidase (P0ABI8 whole entry): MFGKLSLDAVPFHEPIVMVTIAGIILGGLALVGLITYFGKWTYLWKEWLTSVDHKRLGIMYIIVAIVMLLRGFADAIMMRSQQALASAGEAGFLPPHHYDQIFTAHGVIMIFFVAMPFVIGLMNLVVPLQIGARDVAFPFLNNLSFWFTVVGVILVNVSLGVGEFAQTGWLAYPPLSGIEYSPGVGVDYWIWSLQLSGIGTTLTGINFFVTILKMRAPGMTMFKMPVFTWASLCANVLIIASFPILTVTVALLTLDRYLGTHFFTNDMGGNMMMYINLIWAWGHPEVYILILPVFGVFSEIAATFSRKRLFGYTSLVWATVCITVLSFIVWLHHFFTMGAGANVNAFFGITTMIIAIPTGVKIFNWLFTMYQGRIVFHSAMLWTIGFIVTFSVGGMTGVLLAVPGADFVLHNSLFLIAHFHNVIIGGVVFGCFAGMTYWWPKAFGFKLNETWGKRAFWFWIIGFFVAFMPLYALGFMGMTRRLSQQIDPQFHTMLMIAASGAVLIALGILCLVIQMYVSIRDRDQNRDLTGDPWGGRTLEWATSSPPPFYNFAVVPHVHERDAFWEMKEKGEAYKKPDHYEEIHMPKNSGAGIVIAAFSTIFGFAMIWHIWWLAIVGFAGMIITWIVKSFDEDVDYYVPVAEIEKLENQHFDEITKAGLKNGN
Chain of cytochrome bo oxidase (P0ABJ1 25-315 partner): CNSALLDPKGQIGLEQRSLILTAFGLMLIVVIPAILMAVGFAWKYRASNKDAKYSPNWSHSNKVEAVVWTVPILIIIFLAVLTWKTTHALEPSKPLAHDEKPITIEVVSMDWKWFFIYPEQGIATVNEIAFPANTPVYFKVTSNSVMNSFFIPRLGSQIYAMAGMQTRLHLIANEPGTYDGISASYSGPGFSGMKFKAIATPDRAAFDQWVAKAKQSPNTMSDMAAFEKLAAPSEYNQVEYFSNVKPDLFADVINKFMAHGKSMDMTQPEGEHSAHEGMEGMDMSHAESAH
Chain of cytochrome bo oxidase (P0ABJ3 whole entry partner): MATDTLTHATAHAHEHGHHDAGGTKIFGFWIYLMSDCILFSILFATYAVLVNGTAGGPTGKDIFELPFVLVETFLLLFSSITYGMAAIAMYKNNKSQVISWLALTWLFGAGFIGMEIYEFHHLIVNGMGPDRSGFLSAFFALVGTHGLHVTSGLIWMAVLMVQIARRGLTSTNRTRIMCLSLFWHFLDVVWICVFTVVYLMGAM
Chain of cytochrome bo oxidase (P0ABJ6 whole entry partner): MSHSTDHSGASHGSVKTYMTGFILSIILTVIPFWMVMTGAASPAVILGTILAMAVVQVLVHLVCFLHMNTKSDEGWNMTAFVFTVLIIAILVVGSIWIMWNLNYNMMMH

With `S` [hydrogen sulfide] the IC50 was about 5 µM.

Reference: paper PMC4925259 (Molecular microbiology, 2016)
